Assay results reported in US7799804B2, “Therapeutic agents” (Astrazeneca AB, priority 2004, dated 2010).

Biological target: T1, CB1 receptor (Homo sapiens, UniProt P21554)
T1 construct: expressed in transfected cells
Test: [35S]-GTPγS binding assay on membranes from cells stably transfected with the CB1 gene, inhibition of agonist CP55940 (EC80)
Assay type: biochemical
Conditions: half maximal inhibition of GTPγS binding in presence of EC80 concentration of CP55940; 30° C., 45 min

T1 sequence (P21554 whole entry): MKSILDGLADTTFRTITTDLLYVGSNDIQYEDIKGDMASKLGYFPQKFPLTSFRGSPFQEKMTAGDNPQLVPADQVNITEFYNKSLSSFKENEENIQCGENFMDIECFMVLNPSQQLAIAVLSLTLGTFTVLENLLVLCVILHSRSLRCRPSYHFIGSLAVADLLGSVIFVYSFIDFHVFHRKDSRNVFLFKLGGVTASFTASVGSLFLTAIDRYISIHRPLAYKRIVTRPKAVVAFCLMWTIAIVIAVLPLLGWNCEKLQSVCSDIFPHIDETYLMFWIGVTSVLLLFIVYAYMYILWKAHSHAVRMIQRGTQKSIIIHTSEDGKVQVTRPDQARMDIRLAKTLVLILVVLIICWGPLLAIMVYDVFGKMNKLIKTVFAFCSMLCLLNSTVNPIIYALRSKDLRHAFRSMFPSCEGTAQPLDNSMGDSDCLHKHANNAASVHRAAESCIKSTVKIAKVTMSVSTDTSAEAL

- IC50: 28 nM
Structure (SMILES): CCS(=O)(=O)Oc1ccc(-n2c(-c3ccc(Cl)cc3Cl)nc(C(=O)NN3CCCCC3)c2C)cc1 [Example 2, Ethanesulfonic acid 4-[2-(2,4-dichlorophenyl)-5-methyl-4-(piperidin-1-ylcarbamoyl)-imidazol-1-yl]-phenyl ester]
